Assay results from patent publication US8415340B2, “Triazine kinase inhibitors” (Bristol-Myers Squibb Company, priority 2007, dated 2013).

System: IGF1R-Sal tumors
Assay: IGF-1R Sal Tumor Model
Format: in vivo
Details: orally, qd × 4 days, nude mice bearing IGF1R-Sal tumors
Description: P. IGF-1R Sal Tumor Model
A salivary gland adenocarcinoma that developed spontaneously in a transgenic mouse (MCI-19) was excised and cut into fragments of about 20 mg. Tumor fragments were implanted s.c. into the ventral thoracic region of a group of six female, athymic BALB/c nu/nu mice (Harley Sprague-Dawley, Indianapolis, Ind.), using a 13-gauge trocar. Once established, the salivary gland-derived tumor line was designated IGF1R-Sal and was propagated as a tumor xenograft in nude mice. Tumors were passaged every 2 weeks, at which time the tumor reached f500 to 1,000 mm3 in size. For treatment studies, nude micebearing IGF1R-Sal tumors of about 100 mm3 in size were sorted into groups of five for treatment with vehicle (80% polyethylene glycol 400 in water) alone or the test article. Compounds were administered either on a bid schedule (oral doses 8 hours apart) or on a once a day schedule orally (qd) for 4 consecutive days. Tumors were measured at the start and end of treatment. Activity was measured as % tumor growth inhibition (% TGI). The % TGI was determined using the following formula (Ct−Tt)/(Ct−Co) where Ct is defined as the median tumor size of the control group at the end of treatment, Co is defined as the median tumor size of the control group at the start of treatment, and Tt is defined as the median tumor size of the treated group at the end of treatment.

| Structure (SMILES) | % TGI (50 mpk) | % TGI (6.25 mpk) |
| --- | --- | --- |
| CN1CCN(c2nc(Nc3cc(C4CC4)n[nH]3)nc(N3C[C@H](F)C[C@H]3C(=O)Nc3ncns3)n2)CC1 [Example 83, (2S,4R)-1-(4-(3-Cyclopropyl-1H-pyrazol-5-ylamino)-6-(4-methylpiperazin-1-yl)-1,3,5-triazin-2-yl)-4-fluoro-N-(1,2,4-thiadiazol-5-yl)pyrrolidine-2-carboxamide] | 27% |  |
| COCCN1CCN(c2nc(Nc3cc(C4CC4)n[nH]3)nc(N3C[C@H](F)C[C@H]3C(=O)Nc3ncns3)n2)CC1 [Example 84, (2S,4R)-1-(4-(3-Cyclopropyl-1H-pyrazol-5-ylamino)-6-(4-(2-methoxyethyl)piperazin-1-yl)-1,3,5-triazin-2-yl)-4-fluoro-N-(1,2,4-thiadiazol-5-yl)pyrrolidine-2-carboxamide] | 25% |  |
| O=C(Nc1cnccn1)[C@@H]1C[C@H](O)CN1c1nc(Nc2cc(C3CC3)n[nH]2)nc(N2CCOCC2)n1 [Example 85, (2S,4S)-1-(4-(3-Cyclopropyl-1H-pyrazol-5-ylamino)-6-morpholino-1,3,5-triazin-2-yl)-4-hydroxy-N-(pyrazin-2-yl)pyrrolidine-2-carboxamide] |  | 49% |
